Here are results for eight compounds from PubChem BioAssay (NCI).

Among the test systems are ACHN renal; RPMI-8226 leukemia; MALME-3M melanoma; SW-620 colon; CCRF-CEM leukemia; KM12 colon; NCI/ADR-RES ovarian; PC-3 prostate; NCI-H226 lung; BT-549 breast.
What all share (test): growth of human tumour cells (NCI), 48 h

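Method: 48-hour compound exposure of cells in 96-well plates, five concentrations, linear interpolation of endpoints. Here, GI50 denotes the concentration required for 50% inhibition of growth. At the TGI there is no net growth.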 A value given as a limit tells only on which side of the number the result lay.

On to `Nc1ccc(-c2nc3ccccc3[nH]2)c2ccccc12`, for which the GI50 in the experiment with ACHN renal was 8.41 µM; in the experiment on RPMI-8226 leukemia, 2.64 µM; with MALME-3M melanoma, 1.36 µM; in the experiment with SW-620 colon it was 1.4 µM; in the experiment on CCRF-CEM leukemia, 2.03 µM; in the experiment with KM12 colon, 1.92 µM. Also, the GI50 in the experiment on NCI/ADR-RES ovarian was 2.08 µM; in the experiment on PC-3 prostate it was 6.49 µM; in the experiment with NCI-H226 lung it was 8.44 µM; in the experiment on BT-549 breast, 2.39 µM. Besides, the TGI is 41.3 µM in the experiment with ACHN renal; more than 37 µM in the experiment on RPMI-8226 leukemia; 21.6 µM in the experiment on MALME-3M melanoma; more than 100 µM in the experiment with SW-620 colon; more than 43.2 µM in the experiment on CCRF-CEM leukemia; 16.1 µM in the experiment on KM12 colon. In addition, the TGI in the experiment on NCI/ADR-RES ovarian was 7.37 µM; in the experiment with PC-3 prostate, more than 100 µM; in the experiment on NCI-H226 lung, 37.9 µM; in the experiment with BT-549 breast, 22.5 µM.

Turning to `C[CH2][Pb]([CH2]C)([CH2]C)[O]C(=O)c1ccc2ccccc2n1`, the GI50 in the experiment with ACHN renal, with RPMI-8226 leukemia, in the experiment on MALME-3M melanoma, in the experiment with SW-620 colon, with CCRF-CEM leukemia and with KM12 colon was more than 10 µM throughout. Moreover, the GI50 with NCI/ADR-RES ovarian, with PC-3 prostate, in the experiment with NCI-H226 lung and in the experiment on BT-549 breast was more than 10 µM throughout. Besides, the TGI in the experiment on ACHN renal, in the experiment on RPMI-8226 leukemia, with MALME-3M melanoma, with SW-620 colon, in the experiment with CCRF-CEM leukemia and in the experiment on KM12 colon was more than 10 µM each time. In addition, the TGI with NCI/ADR-RES ovarian, with PC-3 prostate, in the experiment on NCI-H226 lung and with BT-549 breast was more than 10 µM in each case.

For `C[C@@H]1O[C@@H](O[C@H]2CC[C@@]3(C)[C@H](CCC4[C@@H]3C(O)C[C@]3(C)[C@@H](c5ccc(=O)oc5)CC[C@]43O)C2)[C@H](O)[C@H](O)[C@H]1O` (some centres not stated), the GI50 in the experiment with ACHN renal was less than 0.00325 µM; in the experiment on RPMI-8226 leukemia, 0.00792 µM; in the experiment with MALME-3M melanoma, 0.00659 µM; in the experiment with SW-620 colon it was 0.00489 µM; in the experiment on CCRF-CEM leukemia, less than 0.00325 µM; in the experiment with KM12 colon it was 0.00696 µM. For the same compound, the GI50 was less than 0.00325 µM in the experiment on NCI/ADR-RES ovarian, 0.00462 µM in the experiment with PC-3 prostate, 0.00608 µM in the experiment on NCI-H226 lung and less than 0.00325 µM with BT-549 breast. Moreover, the TGI in the experiment with ACHN renal turned out to be 0.00803 µM; in the experiment on RPMI-8226 leukemia, 0.0278 µM; in the experiment with MALME-3M melanoma it was 0.0166 µM; in the experiment with SW-620 colon, 0.0123 µM; in the experiment with CCRF-CEM leukemia, 0.0076 µM; with KM12 colon, 0.0157 µM. Moreover, the TGI with NCI/ADR-RES ovarian was determined as 0.00578 µM; in the experiment on PC-3 prostate, 0.0296 µM; in the experiment on NCI-H226 lung, 0.0107 µM; in the experiment with BT-549 breast, 0.00448 µM.

Take `CC1(C)CCC[C@]2(C)[C@@H](C=O)C(C=O)=CC[C@@H]12`: the TGI was 30.6 µM in the experiment on ACHN renal; 31.4 µM with RPMI-8226 leukemia; 32 µM with MALME-3M melanoma; more than 100 µM in the experiment with SW-620 colon; 80.1 µM with CCRF-CEM leukemia; 31.5 µM in the experiment with KM12 colon. Also, the TGI was 40.8 µM in the experiment with NCI/ADR-RES ovarian, more than 100 µM in the experiment on PC-3 prostate, 56.1 µM in the experiment with NCI-H226 lung and 74.2 µM with BT-549 breast.

Turning to `CC1=CC(=O)C(O)C2(C)C1CC(O)C13COC4(C)C(OC(=O)C41)C(O)C23` (configuration not stated), the GI50 in the experiment with ACHN renal is 4.75 µM; with RPMI-8226 leukemia it was 17.3 µM; in the experiment on MALME-3M melanoma it was 10.1 µM; in the experiment on SW-620 colon it was 5.41 µM; in the experiment on CCRF-CEM leukemia, 5.79 µM; with KM12 colon, 7.41 µM. The GI50 in the experiment on NCI/ADR-RES ovarian is 18.2 µM; in the experiment on PC-3 prostate, 26.4 µM; in the experiment with NCI-H226 lung it was 3.48 µM; in the experiment with BT-549 breast it was 11 µM. For the same compound, the TGI in the experiment with ACHN renal was 20.3 µM; with RPMI-8226 leukemia, more than 100 µM; in the experiment with MALME-3M melanoma it was 37.4 µM; in the experiment on SW-620 colon it was 89.9 µM; with CCRF-CEM leukemia, more than 100 µM; in the experiment on KM12 colon, 33.6 µM. Further, the TGI in the experiment on NCI/ADR-RES ovarian is 61.3 µM; with PC-3 prostate it was more than 100 µM; in the experiment on NCI-H226 lung it was 21.2 µM; with BT-549 breast it was 43.4 µM.

Turning to `BrCc1ccc(CBr)cc1`, the GI50 with ACHN renal is 1.94 µM; in the experiment on RPMI-8226 leukemia, 3.1 µM; in the experiment on MALME-3M melanoma it was 4.56 µM; in the experiment on SW-620 colon, 5.1 µM; in the experiment on CCRF-CEM leukemia it was 2.07 µM; in the experiment with KM12 colon it was 1.29 µM. For the same compound, the GI50 with NCI/ADR-RES ovarian was 6.95 µM; with PC-3 prostate it was 5.3 µM; in the experiment on NCI-H226 lung, 5.37 µM. Also, the TGI with ACHN renal is 6.78 µM; in the experiment on RPMI-8226 leukemia, 13.3 µM; in the experiment with MALME-3M melanoma, 12.5 µM; with SW-620 colon, 17.6 µM; in the experiment with KM12 colon, 6.71 µM; in the experiment with NCI/ADR-RES ovarian it was more than 21.1 µM. For the same compound, the TGI in the experiment with NCI-H226 lung worked out at 15.6 µM; in the experiment on BT-549 breast, 3.8 µM.

Regarding `COC(=O)c1nc(-c2ccccc2)oc1S(=O)(=O)n1nc(C)cc1N`, the GI50 in the experiment on ACHN renal is 1.71 µM; in the experiment with RPMI-8226 leukemia it was 5.39 µM; with MALME-3M melanoma it was 1.78 µM; with SW-620 colon it was 3.22 µM; in the experiment on CCRF-CEM leukemia, 2.11 µM; with KM12 colon, 16.9 µM. Moreover, the GI50 was 22.5 µM in the experiment with NCI/ADR-RES ovarian, 18.3 µM with PC-3 prostate, 16.5 µM in the experiment on NCI-H226 lung and 10.8 µM in the experiment with BT-549 breast. Also, the TGI in the experiment with ACHN renal stood at 3.11 µM; in the experiment on RPMI-8226 leukemia, 23.4 µM; in the experiment with MALME-3M melanoma, 4.06 µM; in the experiment with SW-620 colon, 11.2 µM; with CCRF-CEM leukemia, 10.5 µM; in the experiment on KM12 colon, 32.4 µM. In addition, the TGI in the experiment with NCI/ADR-RES ovarian is 57.6 µM; in the experiment on PC-3 prostate, 33.5 µM; with NCI-H226 lung, 41.1 µM; with BT-549 breast, 23.2 µM.

As for `CC(C)(C)c1ccc(C(=O)Nc2sc3c(c2C(N)=O)CCC(=O)C3)cc1`, the GI50 with ACHN renal is 0.352 µM; in the experiment with RPMI-8226 leukemia it was 0.158 µM; in the experiment on MALME-3M melanoma, 0.906 µM; in the experiment with SW-620 colon, 0.187 µM; in the experiment with CCRF-CEM leukemia it was 0.215 µM; in the experiment with KM12 colon, 0.55 µM. Further, the GI50 is 1.47 µM in the experiment on NCI/ADR-RES ovarian, 0.188 µM in the experiment with PC-3 prostate, 1.53 µM in the experiment with NCI-H226 lung and 0.356 µM with BT-549 breast. The TGI in the experiment with ACHN renal is 1.1 µM; in the experiment on RPMI-8226 leukemia it was 0.581 µM; with MALME-3M melanoma, 2.66 µM; in the experiment on SW-620 colon, 1.28 µM; in the experiment on CCRF-CEM leukemia, 3.37 µM; in the experiment on KM12 colon, 2.34 µM. For the same compound, the TGI with NCI/ADR-RES ovarian is 5.53 µM; in the experiment on PC-3 prostate, 1.48 µM; with NCI-H226 lung, 3.43 µM; in the experiment with BT-549 breast, 1.56 µM.
